Assay results as given in patent publication US20220143003A1, “COMPOSITIONS AND METHODS TO TREAT NON-ALCOHOLIC FATTY LIVER DISEASES (NAFLD)” (Coherus Biosciences, Inc., priority 2018, published 2022).

Columns and labels:
Format in all cases: in vivo, male C57BL/6JRj mice
[1] = tested on: DIO-NASH mice; assay: EchoMRI body composition (MRI body weight, fat, lean and free water mass); conditions: for Absolute fat tissue mass at week 11 / Absolute free water mass at week 11 / MRI body weight at week 11 / Relative fat tissue mass at week 11 / Relative lean tissue mass at week 11 / Relative free water mass (% of body weight): group mean, week 11
Procedure: The body composition of the mice was assessed by an EchoMRI 3-1 Body composition analyzer (EchoMRI, US). Non-anaesthetised mice was placed in a plastic tube inside the MRI scanner for approximately 80 seconds. The body composition is expressed as fat mass, fat free mass (lean mass) and water.

[2] = tested on: DIO-NASH mice; assay: Oral glucose tolerance test (OGTT), week 7; conditions: 6 h fasted, oral glucose 2 g/kg, group mean
Procedure: Animals were fasted 6 hours prior to oral glucose administration (2 g/kg). At the various time points after glucose administration, blood samples were collected into heparinized glass capillary tubes and immediately suspended in glucose/lactate system solution buffer (EKF-diagnostics, Germany). Blood glucose (BG) was measured using a BIOSEN c-Line glucose meter (EKF-diagnostics, Germany) according to the manufacturer's instructions. After the last blood sample, the animals were returned to the normal feeding schedule. The order of the animals were randomized before the procedure and mice were dosed with compounds just after the −60 minutes blood sample.
Oral glucose tolerance test (OGTT) in week 7. Temporal course of blood glucose levels during 6 h fasted OGTT. Oral glucose bolus (2 g/kg) at t=0 min.
Area under the curve calculated from the temporal course from 0-180 min OGTT. Values expressed as mean of n=12-14+SEM.

[3] = tested on: DIO-NASH mice; assay: Intraperitoneal insulin tolerance test (IPITT), week 10; parameters: Area under the curve 0-180 min IPITT (blood glucose): unit not given here; conditions: for Area under the curve 0-180 min IPITT (blood glucose): week 10, 6 h fasted, i.p. insulin 0.5 U/kg, group mean
Procedure: Mice were fasted 6 hours prior to intraperitoneal insulin administration (0.5 Unit/kg, rapid acting insulin NovoRapid). At the various time points after insulin administration, blood samples were collected into heparinized glass capillary tubes and immediately suspended in glucose/lactate system solution buffer (EKF-diagnostics, Germany). Blood glucose (BG) was measured using a BIOSEN c-Line glucose meter (EKF-diagnostics, Germany) according to the manufacturer's instructions. After the last blood sample, the animals were returned to the normal feeding schedule. The order of the animals was randomized before the procedure and mice were dosed with compounds just after the −60 minutes blood sample.
Intraperitoneal insulin tolerance test (IPITT) in week 10. Left: Temporal course of blood glucose levels during 6 h fasted IPITT. Intraperitoneal insulin bolus (0.5 U/kg) at t=0 min.
Area under the curve calculated from the temporal course from 0-180 min PITT Values expressed as mean of n=12-14+SEM.

[4] = tested on: DIO-NASH mice; assay: Liver steatosis (liver lipid) quantified by morphometry on HE slides; conditions: terminal, group mean
Procedure: For Hematoxylin & Eosin (HE) staining, slides were incubated in Mayer's Hematoxylin, washed in tap water, stained in Eosin Y solution, […], mounted with Pertex and allowed to dry before scanning.
Quantitative assessment of steatosis is evaluated as follows. Steatosis is quantified on H&E stained slides by image analysis using the Visiomorph software (Visiopharm, Denmark). Visiomorph protocols are designed to analyze the virtual slides in two steps: 1. Crude detection of tissue at low magnification (1× objective). 2. Detection of steatosis (pink) and tissue (blue) at high magnification (20× objective). The quantitative estimate of steatosis is calculated as an area fraction (AF) according to the following formula:
Terminal liver steatosis (i.e. liver lipid) was quantified by morphometry. Relative liver steatosis is denoted in % fractional area. Values expressed as mean of n=12-14+SEM.
Total liver steatosis is denoted in milligrams (% fractional area multiplied with liver weight). Values expressed as mean of n=12-14+SEM.

[5] = tested on: DIO-NASH mice; assay: Liver Galectin-3 IHC quantified by morphometry; conditions: at termination, mean of n=12-14; for Total terminal liver Galectin-3 (Average): % fractional area multiplied with liver weight; for Relative terminal liver Galectin-3 (Average): morphometry
Procedure: Protein markers of fibrosis (Col1a1), fibrogenesis (α-SMA) and inflammation (Gal-3) were assessed by immunohistochemistry. α-SMA and collagen type I increase in regulation of quiescent hepatic stellate cell activation into myofibroblast-like cells where activated hepatic stellate cells are the main collagen producing cells in the liver (Carpino et al 2005, Hou and Syn 2018) whereas Gal-3 is involved in mediating inflammatory response and considered as a macrophage activation marker (Sciacchitano et al, 2018). For morphometric quantification of liver Col1a1 (using antibody from Southern Biotech, Cat. #1310-01), alpha-smooth muscle actin (α-SMA; using antibody from Abcam, Cat. #Ab124964) and Galectin-3 (using antibody from Biolegend, Cat. #125402), IHC staining was performed using standard procedures. Briefly, after antigen retrieval and blocking of endogenous peroxidase activity, slides were incubated with primary antibody. For all IHC stains, the primary antibody was detected using a polymeric HRP-linker antibody conjugate and visualized using DAB as chromogen. Finally, sections were counterstained in hematoxylin and cover-slipped before scanning.
Quantitative assessment of immunoreactivity is evaluated as follows. IHC-positive staining is quantified by image analysis using the Visiomorph software (Visiopharm, Denmark). Visiomorph protocols are designed to analyze the virtual slides in two steps: 1. Crude detection of tissue at low magnification (1× objective). The liver capsule is excluded. 2. Detection of IHC-positive staining (e.g. green; collagen 1 IHC), tissue (e.g. red) and fat (e.g. pink) at high magnification (10×objective). The quantitative estimate of IHC-positive staining is calculated as an area fraction (AF) according to the following formula:
Terminal liver Galectin-3 was quantified by morphometry. Relative terminal liver Galectin-3 (% fractional area) is expressed as mean of n=12-14+SEM.
Total terminal Galectin-3 values are in milligrams (% fractional area multiplied with liver weight) and expressed as mean of n=12-14+SEM.

[6] = DIO-NASH mice, compared to DIO mice administered vehicle only
[7] = DIO-NASH mice, CHS-131 High 30 mg/kg, empagliflozin 10 mg/kg, elafibranor 30 mg/kg PO, liraglutide 0.4 mg/kg SC, QD
[8] = DIO-NASH mice, CHS-131 Low 10 mg/kg PO QD
[9] = CHS-131 High dose (alone or combined)

SMILES	Absolute fat tissue mass at week 11 [1, 7] [g]	Absolute free water mass at week 11 [1, 7] [g]	MRI body weight at week 11 [1, 7] [g]	Relative fat tissue mass at week 11 [1, 7]	Relative lean tissue mass at week 11 [1, 7]	Relative free water mass (% of body weight) [1, 9]	Area under the curve 0-180 min OGTT (blood glucose) [2, 9]	Area under the curve 0-180 min IPITT (blood glucose) [3, 9]	Relative liver steatosis (liver lipid) by morphometry [4, 9] [% fractional area]	Total liver steatosis (% fractional area multiplied with liver weight) [4, 9] [milligrams]	Total terminal liver Galectin-3 (Average) [5] [milligrams]	Relative terminal liver Galectin-3 (Average) [5] [% fractional area]	also measured
O=S(=O)(Nc1cc(Cl)c(Oc2cnc3ccccc3c2)c(Cl)c1)c1ccc(Cl)cc1Cl [CHS-131]	6.9	0.0946	38.2	17.8 % of body weight	48.1 % of body weight	0.249 % of body weight	1.66e+03	767	23.1	758			Fat tissue mass (fat mass), effect in words [1, 6]: reduced significantly; Free water mass, effect in words [1, 6]: remained stable; Relative fat tissue mass, effect in words [1, 6]: reduced; Reduction of % fat mass as % of baseline body weight ([1]; DIO-NASH mice, compared to vehicle alone, CHS-131 dose not stated): 20%; Absolute fat tissue mass at week 11 [1, 8]: 7.07 g; Absolute free water mass at week 11 [1, 8]: 0.165 g; MRI body weight at week 11 [1, 8]: 38.3 g; Relative fat tissue mass at week 11 [1, 8]: 18.4 % of body weight; Relative lean tissue mass at week 11 [1, 8]: 48.5 % of body weight; Relative free water mass (% of body weight) ([1]; CHS-131 Low dose): 0.429 % of body weight; Area under the curve 0-180 min OGTT (blood glucose) ([2]; CHS-131 Low dose): 1.53e+03; Insulin sensitization, effect in words ([3]; DIO-NASH mice, 12 weeks of treatment, summary of data): significant improvement; Decrease of insulin resistance ([3]; DIO-NASH mice, compared to DIO mice administered vehicle only, significant, not in a dose response manner): 15%; Area under the curve 0-180 min IPITT (blood glucose) ([3]; CHS-131 Low dose): 758; Relative liver steatosis (liver lipid) by morphometry ([4]; CHS-131 Low dose): 26.4 % fractional area; Total liver steatosis (% fractional area multiplied with liver weight) ([4]; CHS-131 Low dose): 826 milligrams; Total terminal liver Galectin-3 (Average) ([5]; CHS-131 High dose + Vehicle): 90.6 milligrams; Relative terminal liver Galectin-3 (Average) ([5]; CHS-131 High dose + Vehicle): 2.79 % fractional area; Total terminal liver Galectin-3 (Average) ([5]; CHS-131 Low dose + Vehicle): 93.8 milligrams; Relative terminal liver Galectin-3 (Average) ([5]; CHS-131 Low dose + Vehicle): 2.95 % fractional area
CSc1ccc(C(=O)/C=C/c2cc(C)c(OC(C)(C)C(=O)O)c(C)c2)cc1 [Elafibranor, reference compound]	3.73	0.0923	32.5	11.3 % of body weight	52.6 % of body weight	0.292 % of body weight	1.35e+03	757	7.21	322	104	2.43	
OC[C@H]1O[C@@H](c2ccc(Cl)c(Cc3ccc(O[C@H]4CCOC4)cc3)c2)[C@H](O)[C@@H](O)[C@@H]1O [Empagliflozin, reference compound]	7.81	0.182	40.1	19.4 % of body weight	47.1 % of body weight	0.458 % of body weight	1.31e+03	723	27.2	923	99.9	2.9	
